Measurements: US7947505B2, “Method for testing efficacy of antithrombotic agent” (priority 2005, dated 2011)
Like-named read-outs stand apart in the source and are kept apart here.

Assays:
blood [1] = assay: Thromboelastograph of blood with no antithrombotic agent administered, with heparin or argatroban with or without ADP or collagen added; type: cell-based, human; details: for change of the R value lengthened by anticoagulant when ADP or collagen is added: blood coagulation function normal, no antithrombotic agent administered, heparin or argatroban present
Source text: (§1) The present invention is described below based on embodiments. The thromboelastograph will be described first. A thromboelastograph is an apparatus that tracks the process of blood coagulation by the clot elasticity in whole blood. […] The reaction time R representing the time when the range of the clot elasticity value reaches 2 mm, the coagulation time K representing the time when the range of the clot elasticity value reaches 20 mm, the maximum amplitude MA of the range of the clot elasticity values, the angle ANG formed by a tangent drawn on the graph of the changes in clot elasticity, and the like are obtained as numerical values based on the measurement chart, as shown in FIG. 1. The measurement procedure itself merely comprises placing the blood in a cuvette and beginning measurement. A C-TEG3000T machine made by Haemoscope of the United States was used as the thromboelastograph in the examples below.
(§2) The test method using the thromboelastograph will be described next in itemized form. 1) A thromboelastograph is used in measurement. The thromboelastograph used is one in which the measurement part has two or more channels, and the amount of fluid measured is 0.36 mL. 2) The blood of the patient being administered an antithrombotic agent is sampled by a blood sampling tube for coagulation testing. […] 3) 0.02 mL of 0.2 M calcium chloride and 0.32 mL of blood from the blood sampling tube are mixed with 0.01 mL of anticoagulant and 0.01 mL of physiological saline in the first measurement part (first channel) of the thromboelastograph. The calcium chloride neutralizes the citric acid admixed in the blood sampling tube, and coagulation begins. 4) 0.02 mL of 0.2 M calcium chloride and 0.32 mL of blood from the blood sampling tube are mixed with 0.01 mL of anticoagulant and 0.01 mL of adenosine diphosphate (ADP) or collagen in the second measurement part (second channel) of the thromboelastograph. The adenosine diphosphate (ADP) used here is 0.2 μmol of commercial reagent powder dissolved in 0.67 mL of physiological saline. Similarly, the collagen is 1 mg/mL stock solution diluted to a 36% solution by physiological saline. 5) The first channel and second channel are measured simultaneously by the thromboelastograph, and the R values measured on the thromboelastograph are compared. […] It is necessary in this case to strengthen the antithrombotic effect by measures such as increasing the dose or changing the antithrombotic agent being administered. The platelets in the second channel are believed to be readily activated by the ADP or collagen, and blood coagulation is accelerated. […] It is believed in this case that the platelets in the second channel are not readily activated by the ADP or collagen, and blood coagulation is not accelerated.
(§3) In the following examples and comparative examples, the addition of 0.02 mL of physiological saline of 0.2 M calcium chloride to the sampled blood and the addition of […] to the system without ADP or collagen added are common to all examples and are omitted from the explanations of each example and comparative example.
An example of the administration of sulpyrine will be described next. […] The measurement was the same as in Example 1. Blood with 0.1 U/mL of heparin or 0.31 μg/mL of argatroban added and blood with 8.3 μM of ADP or 10 μg/mL of collagen added to these were measured simultaneously by using a thromboelastograph.
An example of the administration of Pletaal will be described next. […] The amounts of heparin, argatroban, ADP, and collagen added were the same as in Example 2.
As a comparative example, blood obtained when no thrombotic agent (*1) had been administered was measured by thromboelastograph. Specifically, systems of heparin, ADP, and collagen added to blood that contained no thrombotic agent and, similarly, systems of argatroban, ADP, and collagen added to blood that contained no thrombotic agent were measured using a thromboelastograph.

whole blood = details: ADP final concentration 8.3 μM or collagen 10 μg/mL, mean±standard deviation, cited from earlier work; for M A (maximum amplitude): in mm (unit assumed)
[2] = system: blood sampled from a patient being administered an antithrombotic agent; assay: Thromboelastograph of blood sampled after administration of an antithrombotic agent, with anticoagulant with or without ADP or collagen added; type: in vivo, human; details: for R value: ADP 8.3 μM, collagen 10 μg/mL
Source text: as §1, §2, §3
An example of the administration of aspirin as an antithrombotic agent will be described. First, 81 mg/day of aspirin was administered for three days. Blood sampled one hour after oral administration of 40.5 mg of aspirin thereafter was measured using a thromboelastograph. Specifically, thromboelastographic measurements were simultaneously carried out on the sampled blood itself, the same blood with 0.1 U/mL of heparin or 0.31 μg/mL of argatroban added, and blood obtained by adding 8.3 μM of ADP or 10 μg/mL of collagen to these.
Also, 660 mg/day of aspirin was administered for three days, and the blood sampled one hour after oral administration of 330 mg thereafter was measured in the same manner by using a thromboelastograph. […]

blood [3] = details: Hep 0.1 U/mL, ARG 0.3 μg/mL, Col 10 μg/mL, ADP 8.3 μM/L, cited from earlier work
[4] = Comparative Example, blood with no antithrombotic agent administered
[5] = no Pletaal administered (Example 3), heparin 0.1 U/mL, argatroban 0.31 μg/mL, ADP 8.3 μM, collagen 10 μg/mL
[6] = no sulpyrine administered (Example 2), heparin 0.1 U/mL, argatroban 0.31 μg/mL, ADP 8.3 μM, collagen 10 μg/mL

Compound: collagen [Col.]
- change of the R value lengthened by anticoagulant when ADP or collagen is added (blood [1]): shortens significantly
- K (time it takes a clot to be formed) (whole blood; in min (unit assumed)): 2.5 ± 0.5
- R (time it takes for fibrin to be formed) (whole blood; in min (unit assumed)): 5.3 ± 1.4
- M A (maximum amplitude) (whole blood): 57.9 ± 3.9
- K (time it takes a clot to be formed) (whole blood; listed as collagen): no significant difference
- R (time it takes for fibrin to be formed) (whole blood; listed as collagen): shortens significantly
- R + K (whole blood; listed as collagen): shortens significantly
- R + K (whole blood): 7.8 ± 1.5

Compound: O=C1CCc2cc(OCCCCc3nnnn3C3CCCCC3)ccc2N1 [Cil, cilostazol]
- assessment of efficacy of the administered dose (R value shortened by ADP and collagen or not) ([2]; 200 mg/day of Pletaal): functions adequately
- R value ([2]; 200 mg/day of Pletaal for five days, blood sampled one hour after oral 100 mg, heparin 0.04 U/mL, argatroban 0.06 μg/mL): 14.5 ± 3.7
- time until the blood begins to coagulate ([2]; Pletaal administered, 0.1 U/mL of heparin and 0.31 μg/mL of argatroban used, R value could not be determined): more than 3 hours

Compound: CC(=O)Oc1ccccc1C(=O)O [ASP, aspirin]
- assessment of efficacy of the administered dose (R value shortened by ADP and collagen or not) ([2]; 81 mg/day of aspirin for three days): insufficient to function effectively
- R value ([2]; 81 mg/day of aspirin for three days, blood sampled one hour after oral 40.5 mg, heparin 0.1 U/mL, argatroban 0.31 μg/mL): 6.4 ± 1.5
- assessment of efficacy of the administered dose (R value shortened by ADP and collagen or not) ([2]; 660 mg/day of aspirin for three days): function adequately
- R value ([2]; 660 mg/day of aspirin for three days, blood sampled one hour after oral 330 mg, heparin 0.1 U/mL, argatroban 0.31 μg/mL): 6.67 ± 1.7

Compound: Nc1ncnc2c1ncn2[C@@H]1O[C@H](COP(=O)(O)OP(=O)(O)O)[C@@H](O)[C@H]1O [ADP, adenosine diphosphate]
- change of the R value lengthened by anticoagulant when ADP or collagen is added (blood [1]): shortens significantly
- M A (maximum amplitude) (whole blood): 57.9 ± 2.6

Compound: Cc1c(N(C)CS(=O)(=O)[O-])c(=O)n(-c2ccccc2)n1C.[Na+] [Sulp, sulpyrine]
- assessment of efficacy of the administered dose (R value shortened by ADP and collagen or not) ([2]; 250 mg of sulpyrine injected intramuscularly): functions adequately
- R value ([2]; blood sampled one hour after intramuscular injection of 250 mg of sulpyrine, heparin 0.1 U/mL, argatroban 0.31 μg/mL): 6.9 ± 2.1

Compound: CC1CNc2c(cccc2S(=O)(=O)N[C@@H](CCCNC(=N)N)C(=O)N2CC[C@@H](C)C[C@@H]2C(=O)O)C1 (stereo partly shown) [ARG, argatroban]
- R value (blood [1]; [4]): 29.8 ± 11.5
- R value (blood [1]; Comparative Example, blood with no antithrombotic agent administered, listed as argatroban): lengthens
- R value (blood [1]; [5]): 29.7 ± 10.5
- R value (blood [1]; [6]): 29.8 ± 9.5
- A N G (rapidity of clot formation) (blood [3]): 44.5 ± 14.6
- K (blood [3]): 9.8 ± 5.1
- R (blood [3]): 29.8 ± 11.5
- K (blood [3]; listed as argatroban): lengthen
- R (blood [3]; listed as argatroban): lengthen

Compound: heparin
- R value (blood [1]; [4]): 26.4 ± 10.6
- R value (blood [1]; Comparative Example, blood with no antithrombotic agent administered, listed as heparin): lengthens
- R value (blood [1]; [5]): 28.6 ± 9.5
- R value (blood [1]; [6]): 26.4 ± 10.6
- A N G (rapidity of clot formation) (blood [3]): 39.1 ± 13.9
- K (blood [3]): 11.4 ± 6.2
- R (blood [3]): 26.4 ± 10.6
- K (blood [3]; listed as heparin): lengthen
- R (blood [3]; listed as heparin): lengthen
